ChEMBL document CHEMBL5338783, “Discovery of an Anti-TNF-α 9-mer Peptide from a T7 Phage Display Library for the Treatment of Inflammatory Bowel Disease” (J Med Chem, 2023)
Calls of active or inactive are those of the source. Peptide text beside a SMILES is read from it.

Legend:
[1] = biological target: Tumor necrosis factor (Homo sapiens, UniProt P01375); test: Binding affinity to recombinant TNF-alpha (unknown origin) assessed as dissociation constant incubated for 10 mins by MST assay
[2] = biological target: T1, Tumor necrosis factor receptor superfamily member 1B (Homo sapiens) (UniProt P20333); test: Binding affinity to TNFR2 (unknown origin) at 488.3 to 500 uM incubated for 10 mins by MST assay; settings: dose 488.3-500 µM
T1 sequence (whole entry): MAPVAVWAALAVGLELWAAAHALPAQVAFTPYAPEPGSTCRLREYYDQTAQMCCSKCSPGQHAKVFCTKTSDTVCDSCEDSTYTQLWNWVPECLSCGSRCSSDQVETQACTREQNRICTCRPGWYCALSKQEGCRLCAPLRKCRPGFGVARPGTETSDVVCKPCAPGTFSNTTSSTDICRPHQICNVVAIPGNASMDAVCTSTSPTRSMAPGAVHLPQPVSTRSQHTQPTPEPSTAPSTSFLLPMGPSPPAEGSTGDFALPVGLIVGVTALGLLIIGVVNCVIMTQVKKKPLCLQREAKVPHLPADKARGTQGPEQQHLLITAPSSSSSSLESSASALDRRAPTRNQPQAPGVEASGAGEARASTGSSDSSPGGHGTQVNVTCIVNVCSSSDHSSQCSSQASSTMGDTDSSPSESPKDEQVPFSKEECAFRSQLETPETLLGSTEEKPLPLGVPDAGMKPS

[3] = biological target: T2, Tumor necrosis factor receptor superfamily member 1A (Homo sapiens) (UniProt P19438); test: Inhibition of TNF-alpha (unknown origin) binding to TNFR1 by SPR analysis
T2 sequence (whole entry): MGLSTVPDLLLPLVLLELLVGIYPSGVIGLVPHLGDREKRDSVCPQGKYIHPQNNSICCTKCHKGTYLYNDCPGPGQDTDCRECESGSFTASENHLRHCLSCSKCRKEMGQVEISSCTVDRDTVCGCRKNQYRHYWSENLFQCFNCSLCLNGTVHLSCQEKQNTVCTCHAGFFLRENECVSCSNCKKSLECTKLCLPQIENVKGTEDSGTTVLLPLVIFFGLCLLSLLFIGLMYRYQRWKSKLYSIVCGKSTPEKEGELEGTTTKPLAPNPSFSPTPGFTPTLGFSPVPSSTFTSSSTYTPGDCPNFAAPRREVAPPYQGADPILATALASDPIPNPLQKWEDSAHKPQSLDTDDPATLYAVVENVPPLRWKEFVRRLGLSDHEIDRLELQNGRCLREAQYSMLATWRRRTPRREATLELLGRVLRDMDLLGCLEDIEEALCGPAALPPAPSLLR

[4] = biological target: T1, Tumor necrosis factor receptor superfamily member 1B (Homo sapiens); test: Inhibition of TNF-alpha (unknown origin) binding to TNFR2 by SPR analysis
[5] = test system: RAW264.7; test: Antiinflammatory activity in mouse RAW264.7 cells assessed as decrease in LPS-stimulated TNF-alpha mRNA level at 25 to 100 uM incubated for 3 hrs by RT-qPCR analysis; type: functional, cell-based; settings: dose 25-100 µM
[6] = test system: RAW264.7; test: Antiinflammatory activity in mouse RAW264.7 cells assessed as decrease in LPS-stimulated IFN-gamma mRNA level at 25 to 100 uM incubated for 3 hrs by RT-qPCR analysis; type: functional, cell-based; settings: dose 25-100 µM
[7] = test system: RAW264.7; test: Antiinflammatory activity in mouse RAW264.7 cells assessed as decrease in LPS-stimulated IL-1beta protein expression incubated for 3 hrs by flow cytometry; type: functional, cell-based; settings: dose 25-100 µM
[8] = test system: RAW264.7; test: Antiinflammatory activity in mouse RAW264.7 cells assessed as decrease in LPS-stimulated IL-6 protein expression incubated for 3 hrs by flow cytometry; type: functional, cell-based; settings: dose 25-100 µM
[9] = test system: RAW264.7; test: Antiinflammatory activity in mouse RAW264.7 cells assessed as decrease in LPS-stimulated TNF-alpha protein expression incubated for 3 hrs by flow cytometry; type: functional, cell-based; settings: dose 25-100 µM
[10] = test system: RAW264.7; test: Antiinflammatory activity in mouse RAW264.7 cells assessed as decrease in LPS-stimulated IFN-gamma protein expression incubated for 3 hrs by flow cytometry; type: functional, cell-based; settings: dose 25-100 µM
[11] = test system: RAW264.7; test: Antiinflammatory activity in LPS-stimulated mouse RAW264.7 cells assessed as inhibition of p65 phosphorylation incubated for 3 hrs by Western blot analysis; type: functional, cell-based; settings: dose 25-100 µM
[12] = test system: RAW264.7; test: Antiinflammatory activity in LPS-stimulated mouse RAW264.7 cells assessed as inhibition of IkappaBalpha phosphorylation incubated for 3 hrs by Western blot analysis; type: functional, cell-based; settings: dose 25-100 µM
[13] = test system: RAW264.7; test: Antiinflammatory activity in LPS-stimulated mouse RAW264.7 cells assessed as inhibition of JNK1/2 phosphorylation incubated for 3 hrs by Western blot analysis; type: functional, cell-based; settings: dose 25-100 µM
[14] = test system: BMDM; test: Antiinflammatory activity in mouse BMDM cells assessed as decrease in LPS-stimulated TNF-alpha mRNA level incubated for 3 hrs by RT-qPCR analysis; type: functional, cell-based; settings: dose 25-100 µM
[15] = test system: BMDM; test: Antiinflammatory activity in LPS-stimulated mouse BMDM cells assessed as inhibition of MAPK signalling pathway incubated for 3 hrs by Western blot analysis; type: functional, cell-based; settings: dose 25-100 µM
[16] = test system: RAW264.7; test: Disruption of NF-kappaB/p65 nuclear import in LPS-stimulated mouse RAW264.7 cells preincubated for 30 mins followed by LPS stimulation measured after 3 hrs by immunofluorescence based microscopy; type: functional, cell-based
[17] = test system: RAW264.7; test: Cytotoxicity against mouse RAW264.7 cells upto 1000 uM; type: toxicity, cell-based; settings: raw264.7, 1000 µM
[18] = test system: L929; test: Cytotoxicity against mouse L929 cells upto 1000 uM; type: toxicity, cell-based; settings: l929, 1000 µM
[19] = test system: Mus musculus; test: Anti-colitis activity against DSS-induced acute colitis in C57BL/6 mouse model assessed as reduction in colon length at 0.5 to 1 mg/kg, ip daily for 7 days; type: functional, organism-based; settings: dose 0.5-1 mg/kg, time 7.0 day
[20] = test system: Mus musculus; test: Anti-colitis activity against DSS-induced acute colitis in C57BL/6 mouse model assessed as reduction in colonic tissue damage at 0.5 to 1 mg/kg, ip daily for 7 days by H and E staining based analysis; type: functional, organism-based; settings: dose 0.5-1 mg/kg, time 7.0 day
[21] = test system: Mus musculus; test: Anti-colitis activity against DSS-induced acute colitis in C57BL/6 mouse model assessed as increase in spleen index at 0.5 to 1 mg/kg, ip daily for 7 days; type: functional, organism-based; settings: dose 0.5-1 mg/kg, time 7.0 day
[22] = test system: Mus musculus; test: Anti-colitis activity against DSS-induced acute colitis in C57BL/6 mouse model assessed as […] in IFN-gamma mRNA level at 0.5 to 1 mg/kg, ip daily for 7 days by RT-qPCR analysis; type: functional, organism-based; settings: dose 0.5-1 mg/kg, time 7.0 day
[23] = test system: Mus musculus; test: Anti-colitis activity against DSS-induced acute colitis in C57BL/6 mouse model assessed as […] in IL-1beta mRNA level at 0.5 to 1 mg/kg, ip daily for 7 days by RT-qPCR analysis; type: functional, organism-based; settings: dose 0.5-1 mg/kg, time 7.0 day
[24] = test system: Mus musculus; test: Antiinflammatory activity against DSS-induced acute colitis in C57BL/6 mouse model assessed as decrease in p38 phosphorylation in colon tissue administered intraperitoneally daily for 7 days by Western blot analysis; type: functional, organism-based; settings: dose 0.5-1 mg/kg, route ip, time 7.0 day
[25] = test system: Mus musculus; test: Antiinflammatory activity against DSS-induced acute colitis in C57BL/6 mouse model assessed as decrease in ERK1/2 phosphorylation in colon tissue administered intraperitoneally daily for 7 days by Western blot analysis; type: functional, organism-based; settings: dose 0.5-1 mg/kg, route ip, time 7.0 day
[26] = test system: Mus musculus; test: Antiinflammatory activity against DSS-induced acute colitis in C57BL/6 mouse model assessed as decrease in JNK1/2 phosphorylation in colon tissue administered intraperitoneally daily for 7 days by Western blot analysis; type: functional, organism-based; settings: dose 0.5-1 mg/kg, route ip, time 7.0 day
[27] = test system: Mus musculus; test: Antiinflammatory activity against DSS-induced acute colitis in C57BL/6 mouse model assessed as decrease in IkappaBalpha phosphorylation in colon tissue administered intraperitoneally daily for 7 days by Western blot analysis; type: functional, organism-based; settings: dose 0.5-1 mg/kg, route ip, time 7.0 day

Sequence of Tumor necrosis factor (P01375 whole entry): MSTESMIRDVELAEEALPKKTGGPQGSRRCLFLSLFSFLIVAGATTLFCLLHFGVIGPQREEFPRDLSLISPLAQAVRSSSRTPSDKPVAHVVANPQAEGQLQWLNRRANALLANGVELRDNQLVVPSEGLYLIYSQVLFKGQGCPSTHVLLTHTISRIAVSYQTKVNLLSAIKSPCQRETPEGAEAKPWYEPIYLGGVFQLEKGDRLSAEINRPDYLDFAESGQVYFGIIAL

C[C@H](N)C(=O)N[C@@H](CS)C(=O)N[C@@H](Cc1cnc[nH]1)C(=O)N[C@@H](C)C(=O)N[C@@H](Cc1c[nH]c2ccccc12)C(=O)N[C@@H](C)C(=O)N1CCC[C@H]1C(=O)N[C@H](C(=O)N[C@@H](CCCNC(=N)N)C(=O)O)[C@@H](C)O (H-ACHAWAPTR-OH)
active: inhibition [3] | inhibition [4] | Activity [5] Dose-Dependent Effect | Activity [6] Dose-Dependent Effect | Activity [7] Dose-Dependent Effect | Activity [8] Dose-Dependent Effect | Activity [9] Dose-Dependent Effect | Activity [10] Dose-Dependent Effect | Activity [11] Dose-Dependent Effect | Activity [12] Dose-Dependent Effect | Activity [13] Dose-Dependent Effect | Activity [14] Dose-Dependent Effect | Activity [15] Dose-Dependent Effect | Activity [16] Dose-Dependent Effect | Activity [19] | Activity [20] | Activity [21] | Activity [22] | Activity [23] | Activity [24] Dose-Dependent Effect | Activity [25] Dose-Dependent Effect | Activity [26] Dose-Dependent Effect | Activity [27] Dose-Dependent Effect
Non-Toxic: Activity [17] | Activity [18]
5.14 µM: Kd [1]
inactive: Activity [2]
